pIC50: −log10 of the molar value. “And” between values parts separate entries of the source, which are not always exact repeats. Equal values may be shown once. Blank lines part the entries; values can stand above or below the compound they belong to.
System: 967376-340-R-J2-PDC multicell spheroid viability
Experiment: Anticancer human tumor 967376-340-R-J2-PDC patient-derived colon adenocarcinoma cell line growth inhibition [PI3K]
Conditions: for viability, T/C: stronger effect = lower value
How it was run: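 Combination activity was assessed by viability in multicellular tumor spheroids carrying HUVEC and MSC components. Agents were tested with PI3K inhibitors from a Cmax-based top dose (or 10 microM) downward in half-log increments.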

[1] = curve of first compound, second compound 0.0316 µM
[2] = curve of first compound, second compound 0.1 µM
[3] = curve of first compound, second compound 0.316 µM
[4] = curve of first compound, second compound 1 µM
[5] = curve of first compound, second compound 3.16 µM
[6] = curve of first compound, second compound 10 µM
[7] = second compound 0.0316 µM, first compound 0.0316 µM
[8] = second compound 0.0316 µM, first compound 0.1 µM
[9] = second compound 0.0316 µM, first compound 0.316 µM
[10] = second compound 0.0316 µM, first compound 1 µM
[11] = second compound 0.0316 µM, first compound 3.16 µM
[12] = second compound 0.0316 µM, first compound 10 µM
[13] = second compound 0.1 µM, first compound 0.0316 µM
[14] = second compound 0.1 µM, first compound 0.1 µM
[15] = second compound 0.1 µM, first compound 0.316 µM
[16] = second compound 0.1 µM, first compound 1 µM
[17] = second compound 0.1 µM, first compound 3.16 µM
[18] = second compound 0.1 µM, first compound 10 µM
[19] = second compound 0.316 µM, first compound 0.0316 µM
[20] = second compound 0.316 µM, first compound 0.1 µM
[21] = second compound 0.316 µM, first compound 0.316 µM
[22] = second compound 0.316 µM, first compound 1 µM
[23] = second compound 0.316 µM, first compound 3.16 µM
[24] = second compound 0.316 µM, first compound 10 µM
[25] = second compound 1 µM, first compound 0.0316 µM
[26] = second compound 1 µM, first compound 0.1 µM
[27] = second compound 1 µM, first compound 0.316 µM
[28] = second compound 1 µM, first compound 1 µM
[29] = second compound 1 µM, first compound 3.16 µM
[30] = second compound 1 µM, first compound 10 µM
[31] = second compound 3.16 µM, first compound 0.0316 µM
[32] = second compound 3.16 µM, first compound 0.1 µM
[33] = second compound 3.16 µM, first compound 0.316 µM
[34] = second compound 3.16 µM, first compound 1 µM
[35] = second compound 3.16 µM, first compound 3.16 µM
[36] = second compound 3.16 µM, first compound 10 µM
[37] = second compound 10 µM, first compound 0.0316 µM
[38] = second compound 10 µM, first compound 0.1 µM
[39] = second compound 10 µM, first compound 0.316 µM
[40] = second compound 10 µM, first compound 1 µM
[41] = second compound 10 µM, first compound 3.16 µM
[42] = second compound 10 µM, first compound 10 µM
[43] = curve of first compound, second compound 0.00316 µM
[44] = curve of first compound, second compound 0.01 µM
[45] = second compound 0.00316 µM, first compound 0.0316 µM
[46] = second compound 0.00316 µM, first compound 0.1 µM
[47] = second compound 0.01 µM, first compound 0.0316 µM
[48] = second compound 0.01 µM, first compound 0.1 µM
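Also: spheroids exposed to agents for 7 days before read-out.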
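For viability, T/C in this document: luminescence used as surrogate of cell viability.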

- pIC50 [1]: < 5.00
- pIC50 [2]: < 5.00
- pIC50 [3]: < 5.00
- pIC50 [4]: < 5.00
- pIC50 [5]: < 5.00
- pIC50 [6]: < 5.00
Structure (SMILES): C[C@@H](NC(=O)c1ncnc(N)c1Cl)c1ncc(C(=O)Nc2cc(C(F)(F)F)c(Cl)cn2)s1 + Cc1nc(NC(=O)N2CCCC2C(N)=O)sc1-c1ccnc(C(C)(C)C(F)(F)F)c1
- viability, T/C [7]: 87.1%
- viability, T/C [8]: 88.3%
- viability, T/C [9]: 84.6%
- viability, T/C [10]: 105%
- viability, T/C [11]: 94.2%
- viability, T/C [12]: 100%
- viability, T/C [13]: 105%
- viability, T/C [14]: 77.1%
- viability, T/C [15]: 85.4%
- viability, T/C [16]: 96.7%
- viability, T/C [17]: 98.3%
- viability, T/C [18]: 97.6%
- viability, T/C [19]: 65.6%
- viability, T/C [20]: 100%
- viability, T/C [21]: 68%
- viability, T/C [22]: 99.7%
- viability, T/C [23]: 89.7%
- viability, T/C [24]: 78.7%
- viability, T/C [25]: 72.8%
- viability, T/C [26]: 80.4%
- viability, T/C [27]: 79.6%
- viability, T/C [28]: 70.1%
- viability, T/C [29]: 96.6%
- viability, T/C [30]: 76%
- viability, T/C [31]: 55%
- viability, T/C [32]: 71%
- viability, T/C [33]: 71.9%
- viability, T/C [34]: 74%
- viability, T/C [35]: 69.4%
- viability, T/C [36]: 68.2%
- viability, T/C [37]: 56.4%
- viability, T/C [38]: 59.9%
- viability, T/C [39]: 62.1%
- viability, T/C [40]: 54%
- viability, T/C [41]: 61.8%
- viability, T/C [42]: 54.5%

- pIC50 [43]: < 7.00
- pIC50 [44]: 7.01
- pIC50 [1]: 7.48
- pIC50 [2]: 7.75
- pIC50 [3]: 9.27
- pIC50 [4]: > 9.50
Structure (SMILES): CC(C)n1nc(-c2ccc3oc(N)nc3c2)c2c(N)ncnc21 + COc1c(OCCCN2CCOCC2)ccc2c3n(c(=NC(=O)c4cnc(N)nc4)nc12)CCN3
- viability, T/C (second compound 0.00316 µM, first compound 0.000316 µM): 85.7%
- viability, T/C (second compound 0.00316 µM, first compound 0.001 µM): 106%
- viability, T/C (second compound 0.00316 µM, first compound 0.00316 µM): 88.7%
- viability, T/C (second compound 0.00316 µM, first compound 0.01 µM): 74.1%
- viability, T/C [45]: 76.5%
- viability, T/C [46]: 54.8%
- viability, T/C (second compound 0.01 µM, first compound 0.000316 µM): 109%
- viability, T/C (second compound 0.01 µM, first compound 0.001 µM): 97.2%
- viability, T/C (second compound 0.01 µM, first compound 0.00316 µM): 81%
- viability, T/C (second compound 0.01 µM, first compound 0.01 µM): 91.1%
- viability, T/C [47]: 67.3%
- viability, T/C [48]: 47.1%
- viability, T/C (second compound 0.0316 µM, first compound 0.000316 µM): 85.9%
- viability, T/C (second compound 0.0316 µM, first compound 0.001 µM): 83.9%
- viability, T/C (second compound 0.0316 µM, first compound 0.00316 µM): 65.4%
- viability, T/C (second compound 0.0316 µM, first compound 0.01 µM): 63.8%
- viability, T/C [7]: 50%
- viability, T/C [8]: 39.9%
- viability, T/C (second compound 0.1 µM, first compound 0.000316 µM): 58%
- viability, T/C (second compound 0.1 µM, first compound 0.001 µM): 49.5%
- viability, T/C (second compound 0.1 µM, first compound 0.00316 µM): 53.9%
- viability, T/C (second compound 0.1 µM, first compound 0.01 µM): 51.5%
- viability, T/C [13]: 47.9%
- viability, T/C [14]: 27%
- viability, T/C (second compound 0.316 µM, first compound 0.000316 µM): 61.5%
- viability, T/C (second compound 0.316 µM, first compound 0.001 µM): 36.3%
- viability, T/C (second compound 0.316 µM, first compound 0.00316 µM): 38%
- viability, T/C (second compound 0.316 µM, first compound 0.01 µM): 41.4%
- viability, T/C [19]: 37.2%
- viability, T/C [20]: 21.9%
- viability, T/C (second compound 1 µM, first compound 0.000316 µM): 34.9%
- viability, T/C (second compound 1 µM, first compound 0.001 µM): 28.2%
- viability, T/C (second compound 1 µM, first compound 0.00316 µM): 32.1%
- viability, T/C (second compound 1 µM, first compound 0.01 µM): 29.8%
- viability, T/C [25]: 31.6%
- viability, T/C [26]: 26.5%

Further lines, the compound ahead of its results:

Structure (SMILES): CCCS(=O)(=O)Nc1ccc(F)c(C(=O)c2c[nH]c3ncc(-c4ccc(Cl)cc4)cc23)c1F + Cc1nc(NC(=O)N2CCCC2C(N)=O)sc1-c1ccnc(C(C)(C)C(F)(F)F)c1
- pIC50 [1]: 5.16
- pIC50 [2]: < 5.00
- pIC50 [3]: 5.08
- pIC50 [4]: 5.22
- pIC50 [5]: < 5.00
- pIC50 [6]: 5.35
- viability, T/C [7]: 80.2%
- viability, T/C [8]: 82%
- viability, T/C [9]: 101%
- viability, T/C [10]: 102%
- viability, T/C [11]: 105%
- viability, T/C [12]: 29.8%
- viability, T/C [13]: 95.7%
- viability, T/C [14]: 72%
- viability, T/C [15]: 77.2%
- viability, T/C [16]: 80%
- viability, T/C [17]: 117%
- viability, T/C [18]: 60.3%
- viability, T/C [19]: 63%
- viability, T/C [20]: 81.2%
- viability, T/C [21]: 68.7%
- viability, T/C [22]: 91.7%
- viability, T/C [23]: 88.4%
- viability, T/C [24]: 44.3%
- viability, T/C [25]: 78.2%
- viability, T/C [26]: 69.1%
- viability, T/C [27]: 74%
- viability, T/C [28]: 74.8%
- viability, T/C [29]: 66.3%
- viability, T/C [30]: 36.6%
- viability, T/C [31]: 50.5%
- viability, T/C [32]: 56.5%
- viability, T/C [33]: 60.3%
- viability, T/C [34]: 65.6%
- viability, T/C [35]: 71.4%
- viability, T/C [36]: 61.4%
- viability, T/C [37]: 59.7%
- viability, T/C [38]: 46.9%
- viability, T/C [39]: 69.2%
- viability, T/C [40]: 49.6%
- viability, T/C [41]: 65.1%
- viability, T/C [42]: 31.1%

Structure (SMILES): C=CC(=O)N1CCN(c2nc(=O)n(-c3c(C)ccnc3C(C)C)c3nc(-c4c(O)cccc4F)c(F)cc23)C(C)C1 (stereo not given)
- viability, T/C (compound 0.0316 µM): 106% and 98.1% and 85.1%
- viability, T/C (compound 0.1 µM): 87.2% and 75.8% and 115%
- viability, T/C (compound 0.316 µM): 106% and 107% and 86.6%
- viability, T/C (compound 1 µM): 97.1% and 124% and 96.3%
- viability, T/C (compound 3.16 µM): 119% and 123% and 101%
- viability, T/C (compound 10 µM): 112% and 107% and 119%
- pIC50 (curve of compound): < 5.00

Structure (SMILES): C#Cc1c(F)ccc2cc(O)cc(-c3ncc4c(N5CC6CCC(C5)N6)nc(OCC56CCCN5CC(F)C6)nc4c3F)c12 (stereo not given) + CC(Nc1ccc2c(c1)OCCn1cc(N3C(=O)OCC3C(F)F)nc1-2)C(N)=O
- pIC50 [43]: < 5.00
- pIC50 [44]: < 5.00
- pIC50 [1]: < 5.00
- pIC50 [2]: < 5.00
- pIC50 [3]: < 5.00
- pIC50 [4]: 5.65
- viability, T/C [45]: 115%
- viability, T/C [46]: 99.1%
- viability, T/C (second compound 0.00316 µM, first compound 0.316 µM): 72.3%
- viability, T/C (second compound 0.00316 µM, first compound 1 µM): 68.5%
- viability, T/C (second compound 0.00316 µM, first compound 3.16 µM): 94.5%
- viability, T/C (second compound 0.00316 µM, first compound 10 µM): 65.7%
- viability, T/C [47]: 81.8%
- viability, T/C [48]: 86%
- viability, T/C (second compound 0.01 µM, first compound 0.316 µM): 78.7%
- viability, T/C (second compound 0.01 µM, first compound 1 µM): 87.5%
- viability, T/C (second compound 0.01 µM, first compound 3.16 µM): 97.7%
- viability, T/C (second compound 0.01 µM, first compound 10 µM): 59.6%
- viability, T/C [7]: 78.5%
- viability, T/C [8]: 105%
- viability, T/C [9]: 71.6%
- viability, T/C [10]: 62.3%
- viability, T/C [11]: 98.7%
- viability, T/C [12]: 56.6%
- viability, T/C [13]: 79.7%
- viability, T/C [14]: 82%
- viability, T/C [15]: 86.6%
- viability, T/C [16]: 70.7%
- viability, T/C [17]: 62%
- viability, T/C [18]: 58.6%
- viability, T/C [19]: 55.1%
- viability, T/C [20]: 73.9%
- viability, T/C [21]: 63.8%
- viability, T/C [22]: 60.7%
- viability, T/C [23]: 67.6%
- viability, T/C [24]: 45.5%
- viability, T/C [25]: 62.7%
- viability, T/C [26]: 58.6%
- viability, T/C [27]: 57.4%
- viability, T/C [28]: 56.3%
- viability, T/C [29]: 47.8%
- viability, T/C [30]: 32.9%

Structure (SMILES): Cc1nc(NC(=O)N2CCCC2C(N)=O)sc1-c1ccnc(C(C)(C)C(F)(F)F)c1 (stereo not given)
- viability, T/C (compound 0.1 µM): 85.3% [middle of 8 runs]
- viability, T/C (compound 0.316 µM): 80.7% [middle of 8 runs]
- viability, T/C (compound 1 µM): 73.6% [middle of 8 runs]
- viability, T/C (compound 3.16 µM): 64.3% [middle of 8 runs]
- viability, T/C (compound 10 µM): 45.7% [middle of 8 runs]
